{
  "source": "patent US10183015B2",
  "about": "“Heterocyclic compounds and methods of use” (Medivation Technologies LLC, priority 2015, dated 2019)",
  "format_in_all_cases": "in vivo",
  "key": {"[1]": {"system": "60% high fat Paigen diet induced NASH mouse model", "experiment": "Short-term Paigen-diet NASH mouse model: liver Oil Red O staining", "conditions": "21 days", "protocol": "(§1) To investigate whether Compound #37 prevents the development of pathology associated with NASH and steatosis in an acute exploratory disease model, a study was conducted using a diet-induced acute liver steatosis model in mice. As described below, in this study, C57BL/6J mice were initiated on the Paigen diet and simultaneously treated with Compound #37 (5, 20, and 40 mg/kg/day) or vehicle control (20% HPβCD 10 mL/kg/day) by oral gavage for 21 days.\n(§2) After acclimation, 8-week old male C57Bl/6J mice (Charles River) weighing about 25 g were randomized in 4 groups according their body weight and treated once daily around noon by oral gavage with vehicle, or Compound #37 at various for 21 days as follows: Group 1: vehicle-20% (2-hydroxypropyl)-β-cyclodextrin (HP-β-CD) (n=10); Group 2: Compound #37, 5 mg/kg (n=10) Group 3: Compound #37, 20 mg/kg (n=10) Group 4: Compound #37, 40 mg/kg (n=10). During the treatment period, body weight and food intake (measured over 24h) were measured 3 times per week and once a week, respectively. During the acclimation, all mice were fed a standard diet (Special Diets Services RM1 (E), product no. 801492) and tap water ad libitum. After the acclimation period, mice were fed until the end of the experiment with a 60% high fat Paigen diet (60 kcal % fat, 1.25% cholesterol, and 0.5% cholate; D11061901, Research Diet) and tap water ad libitum.\nOne 0.5 cm^3 piece of liver was frozen in OCT in isopentane and stored at −80° C. for neutral lipid coloration with quantification to evaluate accumulation of neutral lipids in the liver. One section (thickness 5-7 μm) per block was deposited on superfrost+slides for Red Oil staining. Red Oil-stained slides were digitalized at ×20 with the Nanozoomer 2.0 HT. Red Oil labeling was quantified (surface, density): the stained slides were analyzed using an image. All the samples were analyzed within the same range of labeling intensity (0-130), allowing comparison between animals. The intensity scale ranged from 0 to 255 grey levels, in which 0 is the value of a black pixel, and 255 is the value of a white pixel. The staining intensity was calculated as the mean intensity of each pixel composing the labeling signal. For each slide, the percentage (%) of labeling was also calculated: %=(Surface of labeling*100)/section area."}, "FAS": {"system": "FAS", "experiment": "Short-term Paigen-diet NASH mouse model: hepatic FAS gene expression (RT-qPCR)", "conditions": "FAS relative expression to vehicle group, 21 days", "protocol": "as §1, §2\n(§3) Gene expression analysis. Hepatic expression levels of genes involved in lipid metabolism (FAS, SREBP1, ACC1, SCD1), cholesterol metabolism (HMG-CoAR, LDLR), SREBP proteolysis (SCAP, INSIG1), ER stress (PERK), oxidative stress (NRF2), inflammation (MCP-1), and fibrosis (collagen 1α1) were quantified by RTqPCR. Expression level was normalized to 18S gene expression and relative expression to vehicle group was calculated with the […] method."}, "SREBP1C": {"system": "SREBP1C", "experiment": "DIN mouse model: hepatic SREBP1C gene expression", "set-up": "key to 2^DDct: expression relative to vehicle group, normalized to 18S", "conditions": "20 mg/kg group; for 18S: Gene Expression: SREBP1C table, 18S reference; for 2^DDct / DDct / Dct / SREBP1C: Gene Expression: SREBP1C", "protocol": "as §3\n(§4) Male C57Bl/6J mice (8 weeks old) were housed in enriched ventilated cages (31×12.5×12.7 cm) throughout the experimental phase. Animals' cages litters were changed at least once a week. Animal were housed 5 per cage on inverted 12-hour light cycle (at 09:00 am lights off), 22±2° C. and 55±10% relative humidity. The acclimation period was 20 days. During the acclimation period, all mice were fed a standard diet (RM1 (E) 801492, SDS) and tap water ad libitum. After the acclimation period, mice were fed with the DIN diet (60% fat, cholesterol enriched) and fructose-enriched tap water ad libitum until the end of the experiment.\n(§5) At 6 weeks of diet, mice were 4-hour fasted (09:00 am to 1:00 pm) and blood (150 μl/EDTA) was collected at 01:00 pm by retro-orbital bleeding under isoflurane anesthesia. Mice were then allocated in 2 homogenous groups (n=12/group) according to their plasma levels of ALT (average levels: 685U/L), AST (average levels: 627U/L) and HOMA-IR index (average value: 4.7), into 2 homogenous groups (see values at day 0 in Tables 15A and 15B ALT/AST and Tables 16A and 16B for HOMA-IR). Mice were then treated once daily by oral gavage with vehicle (Group 1) or Compound #37 at 20 mg/kg (Group 2) for 70 days.\n(§6) Hepatic expression levels of genes involved in lipid (FAS, SREBP1, ACC1, SCD1), cholesterol metabolism (HMG-CoAR, LDLR), in SREBP proteolysis (SCAP, INSIG1), in ER stress (PERK), oxidative stress (NRF2), and inflammation (MCP-1) were not changed. However, expression of collagen 1α1, involved in liver fibrosis, was reduced by 66% in mice treated with Compound #37 (p<0.05 vs. vehicle)."}, "[2]": {"experiment": "Short-term Paigen-diet NASH mouse model: body weight, food intake, mortality", "text": "Results. […] Mice were maintained on specific diet and were sacrificed after 9 days of diet."}, "NRF2": {"system": "NRF2", "experiment": "DIN mouse model: hepatic NRF2 gene expression", "conditions": "liver, 20 mg/kg group", "protocol": "as §3, §4, §5, §6"}, "MCP-1": {"system": "MCP-1", "experiment": "DIN mouse model: hepatic MCP-1 levels", "conditions": "20 mg/kg; for MCP1: hepatic", "protocol": "as §4, §5"}, "[3]": {"conditions": "individual animals, vs vehicle mean, 20 mg/kg"}},
  "note": "Values joined by “and” are separate entries in the source; they are usually repeats but may differ in a detail not shown here. Equal entries are not always repeated.",
  "data": [
    {"smiles": "CC(C)Cc1cc(-c2nc(-c3ccc(NS(=O)(=O)C(F)(F)F)cc3Cl)cs2)ccn1", "note": "[Compound 37, N-(3-chloro-4-(2-(2-isobutylpyridin-4-yl)thiazol-4-yl)phenyl)-1,1,1-trifluoromethanesulfonamide]", "values": [
      {"measurement": "Liver O red Oil staining, % labeling", "setting": "[1]; 5 mg/kg p.o. daily, group mean", "result": 1.50, "unit": "%"},
      {"measurement": "Liver O red Oil staining, % labeling", "setting": "[1]; 5 mg/kg p.o. daily, individual animals", "result": "2.08% and 2.02% and 1.19% and 2.18% and 1.64% and 1.09% and 1.16% and 1.50% and 0.70% and 1.39%"},
      {"measurement": "Liver O red Oil staining, % labeling", "setting": "[1]; 20 mg/kg p.o. daily, group mean", "result": 0.93, "unit": "%"},
      {"measurement": "Liver O red Oil staining, % labeling", "setting": "[1]; 20 mg/kg p.o. daily, individual animals", "result": "1.53% and 0.81% and 0.29% and 1.11% and 0.92% (2×)"},
      {"measurement": "2DDct", "setting": "FAS; 5 mg/kg, group mean", "result": 1.12},
      {"measurement": "2DDct", "setting": "FAS; 5 mg/kg, individual animals, 5 mg/kg", "result": "2.2 and 1.54 and 1.55 and 2.34 and 0.68 and 0.39 and 0.91 and 0.65 and 0.33 and 0.59"},
      {"measurement": "2DDct", "setting": "FAS; 20 mg/kg, group mean", "result": 1.18},
      {"measurement": "2DDct", "setting": "FAS; 20 mg/kg, individual animals, 20 mg/kg", "result": "1.48 and 0.56 and 0.63 and 1.65 and 0.9 and 1.88"},
      {"measurement": "18S", "setting": "SREBP1C; individual animal, 20 mg/kg", "result": "12.55 (2×) and 12.84 and 12.43 and 12.35 (2×) and 12.59 and 11.73 and 12.51 and 11.5 and 11.55"},
      {"measurement": "18S", "setting": "SREBP1C; mean, n 11", "result": 12.3},
      {"measurement": "2^DDct", "setting": "SREBP1C; individual animal", "result": "1.30 and 1.21 and 0.41 and 0.49 and 0.69 and 1.10 and 0.99 and 1.37 and 0.36 and 0.47 and 2.13"},
      {"measurement": "DDct", "setting": "SREBP1C; individual animal", "result": "−0.38 and −0.27 and 1.30 and 1.04 and 0.54 and −0.14 and 0.01 and −0.45 and 1.46 and 1.10 and −1.09"},
      {"measurement": "Dct", "setting": "SREBP1C; individual animal", "result": "12.98 and 13.09 and 14.66 and 14.4 and 13.9 and 13.22 and 13.37 and 12.91 and 14.82 and 14.46 and 12.27"},
      {"measurement": "SREBP1C", "setting": "SREBP1C; individual animal", "result": "25.53 and 25.64 and 27.5 and 26.83 and 26.25 and 25.81 and 25.1 and 25.42 and 26.32 and 26.01 and 24.62"},
      {"measurement": "2^DDct", "setting": "SREBP1C; mean, n 11", "result": 0.96},
      {"measurement": "DDct", "setting": "SREBP1C; mean, n 11", "result": 0.28},
      {"measurement": "Dct", "setting": "SREBP1C; mean, n 11", "result": 13.6},
      {"measurement": "SREBP1C", "setting": "SREBP1C; mean, n 11", "result": 25.9},
      {"measurement": "differences in weight vs vehicle control at end of 3-week dosing period", "setting": "[2]; 5 mg/kg/day and 20 mg/kg/day, surviving animals", "result": "no differences in weight"},
      {"measurement": "mice died", "setting": "[2]; 20 mg/kg/day, group of 10 mice (1 on day 7, 2 on day 9, 1 on day 11)", "result": 4, "unit": "mice"},
      {"measurement": "death of additional mice by day 9", "setting": "[2]; 40 mg/kg/day, group of 10 mice", "result": 3, "unit": "mice"},
      {"measurement": "death of mice by day 7", "setting": "[2]; 40 mg/kg/day, group of 10 mice", "result": 3, "unit": "mice"},
      {"measurement": "mean weight loss", "setting": "[2]; 40 mg/kg/day, over 4 days of treatment", "result": "> 20", "unit": "%"},
      {"measurement": "mice died", "setting": "[2]; mouse, in vivo", "result": "No mice died"},
      {"measurement": "NRF2 Dct", "setting": "NRF2; individual animals, normalised to 18S, 20 mg/kg", "result": "10.62 and 10.7 and 12.57 and 11.27 and 11.31 and 10.88 and 11.1 and 10.74 and 12.23 and 11.89 and 9.9"},
      {"measurement": "NRF2 2^DDct", "setting": "NRF2; [3]", "result": "1.34 and 1.27 and 0.35 and 0.85 and 0.83 and 1.12 and 0.96 and 1.23 and 0.44 and 0.56 and 2.21"},
      {"measurement": "NRF2 DDct", "setting": "NRF2; [3]", "result": "−0.42 and −0.34 and 1.53 and 0.23 and 0.27 and −0.16 and 0.06 and −0.3 and 1.19 and 0.85 and −1.14"},
      {"measurement": "NRF2 (Ct)", "setting": "NRF2; individual animals, 20 mg/kg", "result": "23.17 and 23.25 (2×) and 25.41 and 23.7 and 23.66 and 23.47 and 22.83 and 23.73 and 23.44 and 22.25"},
      {"measurement": "NRF2 2^DDct", "setting": "NRF2; mean, n 11", "result": 1.01},
      {"measurement": "NRF2 (Ct)", "setting": "NRF2; mean, n 11", "result": 23.5},
      {"measurement": "NRF2 DDct", "setting": "NRF2; mean, n 11", "result": 0.16},
      {"measurement": "NRF2 Dct", "setting": "NRF2; mean, n 11", "result": 11.2},
      {"measurement": "Hepatic MCP-1 levels reduction", "setting": "MCP-1; 70 days, p<0.001 vs. vehicle", "result": 70, "unit": "%"},
      {"measurement": "MCP1", "setting": "MCP-1; group mean, n 11", "result": 1.7, "unit": "pg/mg liver"},
      {"measurement": "MCP1", "setting": "MCP-1; individual animals", "result": "1.34 pg/mg liver and 1.53 pg/mg liver and 0.60 pg/mg liver and 2.54 pg/mg liver and 1.76 pg/mg liver and 1.72 pg/mg liver and 1.42 pg/mg liver and 1.21 pg/mg liver and 1.78 pg/mg liver and 1.90 pg/mg liver and 2.59 pg/mg liver"}
    ]}
  ]
}
